Measurements taken from patent US20260345795A1, “MULTIVALENCY FOR ENZYME INHIBITION” (Indiana University Research and Technology Corporation, priority 2022, published 2026).
Several values for one entry are separate records, joined by “and”; a condition that tells them apart may be missing. Identical values can stand only once. Entries after “also recorded” stand apart in the source; their conditions may differ. Like-named read-outs stand apart in the source and are kept apart here. Blank lines part the entries; values can stand above or below the compound they belong to.

Tests used:
tPA = tPA (Homo sapiens, UniProt P00750); test: tPA inhibition assay with chromogenic tPA substrate S-2288, Dixon plot analysis; assay type: biochemical; conditions: role: inhibitor; for Ki / tPA inhibition relative to another inhibitor: tPA 75 nM, S-2288 100-500 μM; for Ki: PBS pH 7.4, read-out: Inhibition constant (Ki); for tPA inhibition compared to plasmin: tPA vs plasmin
Chain of tPA (P00750 36-562, species assumed): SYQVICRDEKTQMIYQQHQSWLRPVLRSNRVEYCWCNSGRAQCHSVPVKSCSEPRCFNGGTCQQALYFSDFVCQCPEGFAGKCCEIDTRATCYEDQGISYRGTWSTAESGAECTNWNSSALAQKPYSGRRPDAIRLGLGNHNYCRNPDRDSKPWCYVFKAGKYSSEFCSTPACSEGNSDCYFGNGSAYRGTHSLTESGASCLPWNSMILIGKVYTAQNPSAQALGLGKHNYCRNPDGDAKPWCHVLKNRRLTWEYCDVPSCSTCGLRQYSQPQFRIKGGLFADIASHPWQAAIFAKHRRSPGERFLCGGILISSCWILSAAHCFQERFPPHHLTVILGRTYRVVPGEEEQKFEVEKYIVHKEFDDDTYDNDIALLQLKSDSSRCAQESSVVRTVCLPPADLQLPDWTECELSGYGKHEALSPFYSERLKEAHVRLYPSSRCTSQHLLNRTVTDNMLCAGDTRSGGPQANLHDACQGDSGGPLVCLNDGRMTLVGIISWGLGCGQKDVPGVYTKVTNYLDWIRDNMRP
Experimental: Inhibition assays were performed using a fixed tPA concentration of 75 nM in PBS pH 7.4 over a range of Chromogenic tPA Substrate (S-2288) concentrations of 100-500 μM.

thrombin = thrombin (Homo sapiens, UniProt P00734); test: Thrombin inhibition assay with fluorogenic Thrombin Substrate III, Dixon plot analysis; assay type: biochemical; conditions: role: inhibitor; for Ki: PBS pH 7.4, 10% DMSO, read-out: Inhibition constant (Ki); for thrombin inhibition compared to plasmin: thrombin vs plasmin
Experimental: In this example, commercially available inhibitors shown in Table 1, Tri-AMB and all hetero-multivalent inhibitors were tested for their thrombin inhibition. Inhibition assays were performed using a fixed thrombin concentration of 0.25 U/mL in PBS pH 7.4 over a range of Thrombin Substrate III (fluorogenic) concentrations of 20-50 μM at 10% DMSO.

Human plasmin = biological target: T1, Human plasmin (Homo sapiens, UniProt P00747); test: Plasmin inhibition assay with chromogenic substrate S-2251, Dixon plot / Cornish-Bowden analysis; assay type: biochemical; conditions: role: inhibitor; for mode of inhibition (Cornish-Bowden plot): S-2251; for rp: relative potency = Ki^AMB/Ki^multi: benzamidine inhibitors relative to AMB; for rp/n: relative potency/number of benzamidine units: relative to AMB per benzamidine unit; for rp1: relative potency = Ki^AMB/Ki^multi: hetero-bivalent inhibitors relative to AMB; for rp2: relative potency = Ki^TXA or EACA/Ki^multi: hetero-bivalent inhibitors relative to TXA or EACA
T1 construct: a heavy chain (~60 kDa) comprising 5 kringle domains
T1 sequence (P00747 581-810 limits assumed): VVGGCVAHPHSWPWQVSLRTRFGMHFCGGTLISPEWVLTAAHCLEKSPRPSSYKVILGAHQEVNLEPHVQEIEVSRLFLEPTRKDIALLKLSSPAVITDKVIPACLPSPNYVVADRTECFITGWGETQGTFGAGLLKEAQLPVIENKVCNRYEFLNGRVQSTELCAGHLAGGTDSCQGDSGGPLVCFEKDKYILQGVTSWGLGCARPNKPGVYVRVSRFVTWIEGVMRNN
T1 sequence (P00747 97-580 limits assumed): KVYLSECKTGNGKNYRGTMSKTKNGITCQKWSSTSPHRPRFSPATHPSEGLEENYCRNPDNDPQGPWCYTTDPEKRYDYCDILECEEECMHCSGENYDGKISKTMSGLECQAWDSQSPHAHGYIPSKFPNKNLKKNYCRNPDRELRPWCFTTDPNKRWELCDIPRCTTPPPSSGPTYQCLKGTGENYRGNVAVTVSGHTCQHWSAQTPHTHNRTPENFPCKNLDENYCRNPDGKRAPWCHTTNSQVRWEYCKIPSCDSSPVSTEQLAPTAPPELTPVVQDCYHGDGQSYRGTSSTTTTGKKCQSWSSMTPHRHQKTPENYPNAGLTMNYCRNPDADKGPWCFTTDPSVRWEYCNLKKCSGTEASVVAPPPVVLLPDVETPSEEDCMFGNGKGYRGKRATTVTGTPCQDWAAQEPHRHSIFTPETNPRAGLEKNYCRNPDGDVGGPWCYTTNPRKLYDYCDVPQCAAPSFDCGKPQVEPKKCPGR
Experimental: Inhibition assays were performed on all synthesized multivalent affinity molecules in addition to free AMB and Pentamidine. […] Ki values were calculated for all multivalent affinity molecules via Dixon Plot analysis using the negative x-intersection point. […] A smaller Ki value indicates a higher degree of inhibition. Cornish-Bowden graphs (S/Vo vs I) were also plotted to verify the type of inhibition, i.e., competitive, uncompetitive, non-competitive, or mixed.
Parameters used to quantify multivalency, namely, relative potency (rp), and relative potency per unit (rp/n) were also computed. To evaluate the strength of the multivalent affinity molecules as compared to the monovalent affinity molecules, rp was used and is a ratio of Ki^mono to Ki^multi Ki of monovalent AMB was used for this calculation since AMB was utilized for synthesis of the multivalent affinity molecules. […] To better evaluate multivalency effects, rp/n was also computed to determine the benefit of linking multiple affinity moieties together.
Human plasmin (42.5 nM) over a range of inhibitor concentrations (0-2 mM) and chromogenic substrate concentrations (Chromogenix S-2251 100-500 μM) were utilized for Inhibition assays.
Human plasmin (42.5 nM) over a range of inhibitor concentrations (0-500 μM) and chromogenic substrate concentrations (Chromogenix S-2251 100-500 μM) were utilized for Inhibition assays.
In this example, homo-multivalent and hetero multivalent micelles were synthesized to determine their plasmin inhibition. […] After weighing and mixing the appropriate lipids amounts in chloroform, a lipid film was made by slowly evaporating chloroform while rotating the vial gently under air. The dried lipid film was placed in a desiccator under vacuum overnight. The lipid film was rehydrated using 2 mL PBS and was sonicated for 2 mins while heating at 60° C. to obtain more rapid and less polydisperse micelle formation by self-assembly. […] Human plasmin (42.5 nM) over a range of inhibitor concentrations (0-500 μM) and chromogenic substrate concentrations (Chromogenix S-2251 100-500 μM) were utilized for Inhibition assays.

[1] = system: light chain and kringle 5 of plasmin; conditions: cited from earlier work
plasmin = conditions: role: inhibitor; Alves et al.; cited from earlier work
[2] = biological target: LBS sites on other kringle domains of plasmin; conditions: role: inhibitor; cited from earlier work
[3] = treatment delayed beyond 3 hours; cited from earlier work
[4] = thrombin 0.25 U/mL, Thrombin Substrate III 20-50 μM
[5] = hetero-bivalent inhibitors, human plasmin 42.5 nM, S-2251 100-500 μM, read-out: Inhibition constant (Ki)
[6] = substrate S-2251 100-500 μM, plasmin 42.5 nM, PBS pH 7.4, benzamidine inhibitors, Dixon plot, read-out: Inhibition constant (Ki)

SMILES: N=C(N)c1ccc(N)cc1 [4-amino benzamidine, 4-Aminobenzamidine, reference compound]
Ki (tPA): 148 ± 0.9 µM

SMILES: N=C(N)c1ccc(C(=O)O)cc1 [4-carboxy benzamidine, 4-Carboxybenzamidine, reference compound]
Ki (thrombin; [4]): 151 ± 4 µM

SMILES: N=C(N)c1ccc(CN)cc1 [AMB, 4-aminomethyl benzamidine, reference compound]
Ki (Human plasmin; [5]): 1.4 ± 0.166 mM
mode of inhibition (Cornish-Bowden plot) (Human plasmin; plasmin 42.5 nM, PBS pH 7.4): competitive inhibitor
Ki (Human plasmin; [6]): 1.4 mM
Ki (tPA): 5210 ± 161 µM
Ki (thrombin; [4]): 344 ± 33 µM

SMILES: N=C(N)c1ccccc1 [Benzamidine]
subsite binding [1]: weak subsite binding

SMILES: NC[C@H]1CC[C@H](C(=O)NCCCC[C@H](NC(=O)[C@H]2CC[C@H](CN)CC2)C(N)=O)CC1 [Bis-TXA]
Ki (Human plasmin; TXA affinity molecules, human plasmin 42.5 nM, S-2251 100-500 μM, read-out: Inhibition constant (Ki)): 6.4 ± 2.03 mM
Ki (Human plasmin; human plasmin 42.5 nM, S-2251 100-500 μM, text value in mM, read-out: Ki (active site inhibition of plasmin)): 6.4 mM
rp: relative potency = Ki^TXA/Ki^multi (Human plasmin; plasmin, TXA affinity molecules relative to TXA, S-2251 100-500 μM): 3.3
rp/n: relative potency/number of TXA units (Human plasmin; plasmin, relative to TXA per TXA unit, S-2251 100-500 μM): 1.7

SMILES: N=C(N)c1ccc(CNC(=O)CCOCCOCCC(=O)NCc2ccc(C(=N)N)cc2)cc1 [Bis-dPEG2-AMB]
mode of inhibition (Cornish-Bowden plot) (Human plasmin; plasmin 42.5 nM, PBS pH 7.4): competitive inhibition; also recorded: competitive inhibitor
rp: relative potency = Ki^AMB/Ki^multi (Human plasmin; plasmin, S-2251 100-500 μM): 25.2
rp/n: relative potency/number of benzamidine units (Human plasmin; plasmin, S-2251 100-500 μM): 12.6

SMILES: NCCCCCC(=O)O [EACA, ε-Aminocaproic Acid, reference compound]
Ki (thrombin; [4]): > 10000 µM

SMILES: N=C(N)c1ccc(CNC(=O)CCOCCOCCOCCOCCNC(=O)CCCCCN)cc1 [EACA-dPEG4-AMB]
Ki (Human plasmin; [5]): 0.233 ± 0.005 mM
rp1: relative potency = Ki^AMB/Ki^multi (Human plasmin; plasmin, S-2251 100-500 μM): 6
rp2: relative potency = Ki^TXA or EACA/Ki^multi (Human plasmin; plasmin, S-2251 100-500 μM): 305
Ki (thrombin; [4]): 5.6 ± 0.2 µM

SMILES: N=C(N)c1ccc(OCCCCCOc2ccc(C(=N)N)cc2)cc1 [Pentamidine, reference compound]
mode of inhibition (Cornish-Bowden plot) (Human plasmin; plasmin 42.5 nM, PBS pH 7.4): competitive inhibitor
rp: relative potency = Ki^AMB/Ki^multi (Human plasmin; plasmin, S-2251 100-500 μM): 664.3
rp/n: relative potency/number of benzamidine units (Human plasmin; plasmin, S-2251 100-500 μM): 332.1
Ki (Human plasmin; [6]): 0.0021 mM and 0.0026 mM
tPA inhibition relative to another inhibitor (tPA): stronger inhibitor than Tri-AMB
Ki (tPA): 48 ± 12 µM
tPA inhibition compared to plasmin (tPA): weaker tPA inhibitors compared to plasmin
thrombin inhibition relative to another inhibitor (thrombin; [4]): slightly stronger thrombin inhibitor than Tri-AMB
Ki (thrombin; [4]): 4.5 ± 2.3 µM
thrombin inhibition compared to plasmin (thrombin): slightly weaker thrombin inhibitors compared to plasmin
fold stronger plasmin inhibitor than the strongest monovalent benzamidine (plasmin): 15 fold

SMILES: NC[C@H]1CC[C@H](C(=O)O)CC1 [TXA, Tranexamic acid]
Ki [2]: 0.75 µM
clinical trial outcome of delayed treatment [3]: ineffective or harmful

SMILES: N=C(N)c1ccc(CNC(=O)CCOCCOCCOCCOCCNC(=O)[C@H]2CC[C@H](CN)CC2)cc1 [TXA-dPEG4-AMB]
Ki (Human plasmin; [5]): 0.042 ± 0.0124 mM
rp1: relative potency = Ki^AMB/Ki^multi (Human plasmin; plasmin, S-2251 100-500 μM): 33
rp2: relative potency = Ki^TXA or EACA/Ki^multi (Human plasmin; plasmin, S-2251 100-500 μM): 509
fold stronger than m-dPEG4-AMB (plasmin inhibition) (Human plasmin; plasmin, relative to m-dPEG4-AMB, S-2251 100-500 μM): over 7 fold
Ki (tPA): 230 ± 30 µM
Ki (thrombin; [4]): 14.5 ± 6.7 µM

SMILES: N=C(N)c1ccc(CNC(=O)CCOCCOCCOCCOCCOCCOCCOCCOCCOCCOCCOCCOCCOCCOCCOCCOCCOCCOCCOCCOCCOCCOCCOCCOCCOCCOCCOCCOCCOCCOCCOCCOCCOCCOCCOCCOCCNC(=O)[C@H]2CC[C@H](CN)CC2)cc1 [TXA-dPEG36-AMB]
Ki (Human plasmin; [5]): 0.075 mM and 0.0754 mM
rp1: relative potency = Ki^AMB/Ki^multi (Human plasmin; plasmin, S-2251 100-500 μM): 19
rp2: relative potency = Ki^TXA or EACA/Ki^multi (Human plasmin; plasmin, S-2251 100-500 μM): 285
Ki (thrombin; [4]): 78 ± 1.5 µM

More lines, main results first:

Ki (Human plasmin; [5]): 0.099 ± 0.0009 mM
rp1: relative potency = Ki^AMB/Ki^multi (Human plasmin; plasmin, S-2251 100-500 μM): 14
rp2: relative potency = Ki^TXA or EACA/Ki^multi (Human plasmin; plasmin, S-2251 100-500 μM): 216
SMILES: N=C(N)c1ccc(CNC(=O)CCOCCOCCOCCOCCOCCOCCOCCOCCNC(=O)[C@H]2CC[C@H](CN)CC2)cc1 [TXA-dPEG8-AMB]

Ki (Human plasmin; [5]): 0.207 mM
rp1: relative potency = Ki^AMB/Ki^multi (Human plasmin; plasmin, S-2251 100-500 μM): 7
rp2: relative potency = Ki^TXA or EACA/Ki^multi (Human plasmin; plasmin, S-2251 100-500 μM): 103
tPA inhibition relative to another inhibitor (tPA): stronger tPA inhibitor than TXA-PEG4-AMB
Ki (tPA): 128 ± 11 µM
Ki (thrombin; [4]): 46 ± 1.5 µM
SMILES: N=C(N)c1ccc(CNC(=O)CCOCCOCCOCCOCCOCCOCCOCCOCCOCCOCCOCCOCCNC(=O)[C@H]2CC[C@H](CN)CC2)cc1 [TXA-dPEG12-AMB]

Ki (tPA): 112 ± 21 µM
Ki (thrombin; [4]): 10.6 ± 2 µM
SMILES: N=C(N)c1ccc(CNC(=O)CN(CC(=O)NCc2ccc(C(=N)N)cc2)CC(=O)NCc2ccc(C(=N)N)cc2)cc1 [Tri-AMB]
tPA inhibition compared to plasmin (tPA): weaker tPA inhibitors compared to plasmin
thrombin inhibition compared to plasmin (thrombin): slightly weaker thrombin inhibitors compared to plasmin

mode of inhibition (Cornish-Bowden plot) (Human plasmin; plasmin 42.5 nM, PBS pH 7.4): competitive inhibitor
rp: relative potency = Ki^AMB/Ki^multi (Human plasmin; plasmin, S-2251 100-500 μM): 27.6
rp/n: relative potency/number of benzamidine units (Human plasmin; plasmin, S-2251 100-500 μM): 9.2
Ki (Human plasmin; [6]): 0.0505 ± 0.014 mM
SMILES: N=C(N)c1ccc(CNC(=O)CCOCCOCCOCCOCCNC(=O)CN(CC(=O)NCCOCCOCCOCCOCCC(=O)NCc2ccc(C(=N)N)cc2)CC(=O)NCCOCCOCCOCCOCCC(=O)NCc2ccc(C(=N)N)cc2)cc1 [Tri-dPEG4-AMB]

mode of inhibition (Cornish-Bowden plot) (Human plasmin; plasmin 42.5 nM, PBS pH 7.4): competitive inhibitor
rp: relative potency = Ki^AMB/Ki^multi (Human plasmin; plasmin, S-2251 100-500 μM): 3.9
rp/n: relative potency/number of benzamidine units (Human plasmin; plasmin, S-2251 100-500 μM): 3.9
Ki (Human plasmin; [6]): 0.36 ± 0.0352 mM
SMILES: COCCOCCOCCOCCOCCOCCOCCOCCOCCOCCOCCOCCC(=O)NCc1ccc(C(=N)N)cc1 [m-dPEG12-AMB]

mode of inhibition (Cornish-Bowden plot) (Human plasmin; plasmin 42.5 nM, PBS pH 7.4): competitive inhibitor
rp: relative potency = Ki^AMB/Ki^multi (Human plasmin; plasmin, S-2251 100-500 μM): 2.7
rp/n: relative potency/number of benzamidine units (Human plasmin; plasmin, S-2251 100-500 μM): 2.7
Ki (Human plasmin; [6]): 0.521 ± 0.0849 mM
SMILES: COCCOCCOCCOCCOCCOCCOCCOCCOCCOCCOCCOCCOCCOCCOCCOCCOCCOCCOCCOCCOCCOCCOCCOCCC(=O)NCc1ccc(C(=N)N)cc1 [m-dPEG24-AMB]
